Experimental data published in ChEMBL document CHEMBL1201862, “PubChem BioAssay data set” (2004).
Calls of active or inactive are those of the source.

How the values were obtained:
[1] = A Cell Based Secondary Assay To Explore Cytotoxicity of Compounds that Sensitize Mycobacterium Tuberculosis to Beta-Lactam Antibiotics.; type: functional
[2] = viability of uninfected HEp-2 cells – cell-based, HTS, cytotoxicity control for RSV inhibitor project, dose response (AID 2410); type: functional; conditions: human respiratory syncytial virus
cells [3] = assay: cells
Vero = assay: cells; type: functional; conditions: Chlorocebus sabaeus
[4] = Trypanosoma cruzi growth suppression in host cells – NIH3T3 host cells, beta-gal luminescence, confirmation (AID 2044); type: functional, cell-based;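 also: intracellular parasites grown in NIH/3T3 mouse fibroblasts as host cells; luminescent beta-galactosidase reporter signal from transgenic T. cruzi replicating inside host cells; inhibitors lower the luminescence signal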
[5] = target: T1, DNA repair protein RAD52 homolog (Homo sapiens, UniProt P43351); type: functional, biochemical
T1 sequence (P43351 whole entry): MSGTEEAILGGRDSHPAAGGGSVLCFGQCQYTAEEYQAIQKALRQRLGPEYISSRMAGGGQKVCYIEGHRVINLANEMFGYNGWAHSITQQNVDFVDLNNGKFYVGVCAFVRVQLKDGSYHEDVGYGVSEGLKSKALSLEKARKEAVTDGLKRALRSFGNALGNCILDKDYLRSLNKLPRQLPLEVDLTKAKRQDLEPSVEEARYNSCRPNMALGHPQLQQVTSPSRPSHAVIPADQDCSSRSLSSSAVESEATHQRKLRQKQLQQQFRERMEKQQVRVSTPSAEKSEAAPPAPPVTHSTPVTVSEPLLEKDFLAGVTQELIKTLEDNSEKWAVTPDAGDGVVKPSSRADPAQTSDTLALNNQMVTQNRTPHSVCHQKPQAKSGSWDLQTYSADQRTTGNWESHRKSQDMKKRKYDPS

cells [6] = assay: cells; remark: listed apart in the source
[7] = NIH3T3 cell viability loss – ATP luminescence, mouse fibroblasts, counter-screen, dose response (AID 2010); type: functional, cell-based;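 also: cells exposed to compound for about 90 hours before reading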
[8] = target: T2, DNA repair and recombination protein RAD54-like (Homo sapiens, UniProt Q92698); assay: RAD54 Holliday junction migration blockers – biochemical, fluorescence, cherry-picked samples, dose series, confirmation (AID 651657); type: functional
T2 sequence (Q92698 whole entry): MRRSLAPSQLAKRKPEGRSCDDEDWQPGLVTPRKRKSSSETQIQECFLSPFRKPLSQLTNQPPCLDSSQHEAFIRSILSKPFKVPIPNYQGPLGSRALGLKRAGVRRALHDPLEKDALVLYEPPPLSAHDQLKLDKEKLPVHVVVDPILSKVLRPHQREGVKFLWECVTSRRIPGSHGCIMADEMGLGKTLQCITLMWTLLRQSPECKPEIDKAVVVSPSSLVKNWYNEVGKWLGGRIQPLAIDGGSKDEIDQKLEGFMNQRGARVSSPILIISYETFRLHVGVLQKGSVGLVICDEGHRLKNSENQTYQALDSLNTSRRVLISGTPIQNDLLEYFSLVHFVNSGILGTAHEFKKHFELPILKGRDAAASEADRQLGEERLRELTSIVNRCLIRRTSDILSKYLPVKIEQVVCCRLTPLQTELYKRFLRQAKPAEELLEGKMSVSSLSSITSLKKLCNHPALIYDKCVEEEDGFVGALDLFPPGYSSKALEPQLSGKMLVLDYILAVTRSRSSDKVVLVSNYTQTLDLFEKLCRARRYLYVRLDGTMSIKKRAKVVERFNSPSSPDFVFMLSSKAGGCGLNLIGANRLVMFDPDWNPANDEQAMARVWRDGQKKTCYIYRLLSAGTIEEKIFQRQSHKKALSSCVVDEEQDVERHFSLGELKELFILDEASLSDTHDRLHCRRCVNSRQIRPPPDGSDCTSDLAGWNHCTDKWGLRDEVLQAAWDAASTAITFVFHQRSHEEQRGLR

[9] = target: T3, Replicative DNA helicase DnaB (Mycobacterium tuberculosis, UniProt P9WMR3); assay: DnaB intein splicing inhibitors, dose response, biochemical, cell-free fluorescence (AID 449749); type: functional
T3 sequence (P9WMR3 whole entry): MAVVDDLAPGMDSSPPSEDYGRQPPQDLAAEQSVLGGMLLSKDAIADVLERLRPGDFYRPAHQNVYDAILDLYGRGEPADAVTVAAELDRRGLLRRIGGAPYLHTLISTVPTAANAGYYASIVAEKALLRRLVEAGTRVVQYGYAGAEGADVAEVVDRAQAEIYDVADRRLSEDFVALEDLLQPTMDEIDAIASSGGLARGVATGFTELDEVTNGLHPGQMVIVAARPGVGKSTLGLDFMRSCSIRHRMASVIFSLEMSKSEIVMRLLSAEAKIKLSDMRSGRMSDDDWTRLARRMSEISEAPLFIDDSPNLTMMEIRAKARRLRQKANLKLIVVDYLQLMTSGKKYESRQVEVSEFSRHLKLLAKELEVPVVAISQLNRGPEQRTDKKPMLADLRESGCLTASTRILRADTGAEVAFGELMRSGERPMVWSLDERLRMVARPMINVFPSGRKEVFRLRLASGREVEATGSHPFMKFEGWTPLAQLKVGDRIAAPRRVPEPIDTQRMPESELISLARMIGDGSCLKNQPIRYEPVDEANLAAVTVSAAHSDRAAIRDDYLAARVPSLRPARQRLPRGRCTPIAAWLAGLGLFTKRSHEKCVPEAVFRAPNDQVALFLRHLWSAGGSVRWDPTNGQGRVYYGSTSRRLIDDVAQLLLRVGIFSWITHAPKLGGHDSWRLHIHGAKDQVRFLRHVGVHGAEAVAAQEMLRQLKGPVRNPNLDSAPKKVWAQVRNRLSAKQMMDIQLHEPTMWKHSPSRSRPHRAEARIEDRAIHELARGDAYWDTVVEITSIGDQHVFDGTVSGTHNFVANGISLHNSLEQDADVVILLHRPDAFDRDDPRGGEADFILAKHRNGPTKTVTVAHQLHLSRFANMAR

Protein RecA = target: T4, Protein RecA (Mycobacterium tuberculosis, UniProt P9WHJ3); assay: Fluorescence Cell-Free Homogeneous Dose Retest to Identify Inhibitors of RecA-Intein Splicing Activity. [Related pubchem assays (depositor defined):AID2097, AID2223, AID489010, AID492950]; type: functional
T4 sequence (P9WHJ3 whole entry): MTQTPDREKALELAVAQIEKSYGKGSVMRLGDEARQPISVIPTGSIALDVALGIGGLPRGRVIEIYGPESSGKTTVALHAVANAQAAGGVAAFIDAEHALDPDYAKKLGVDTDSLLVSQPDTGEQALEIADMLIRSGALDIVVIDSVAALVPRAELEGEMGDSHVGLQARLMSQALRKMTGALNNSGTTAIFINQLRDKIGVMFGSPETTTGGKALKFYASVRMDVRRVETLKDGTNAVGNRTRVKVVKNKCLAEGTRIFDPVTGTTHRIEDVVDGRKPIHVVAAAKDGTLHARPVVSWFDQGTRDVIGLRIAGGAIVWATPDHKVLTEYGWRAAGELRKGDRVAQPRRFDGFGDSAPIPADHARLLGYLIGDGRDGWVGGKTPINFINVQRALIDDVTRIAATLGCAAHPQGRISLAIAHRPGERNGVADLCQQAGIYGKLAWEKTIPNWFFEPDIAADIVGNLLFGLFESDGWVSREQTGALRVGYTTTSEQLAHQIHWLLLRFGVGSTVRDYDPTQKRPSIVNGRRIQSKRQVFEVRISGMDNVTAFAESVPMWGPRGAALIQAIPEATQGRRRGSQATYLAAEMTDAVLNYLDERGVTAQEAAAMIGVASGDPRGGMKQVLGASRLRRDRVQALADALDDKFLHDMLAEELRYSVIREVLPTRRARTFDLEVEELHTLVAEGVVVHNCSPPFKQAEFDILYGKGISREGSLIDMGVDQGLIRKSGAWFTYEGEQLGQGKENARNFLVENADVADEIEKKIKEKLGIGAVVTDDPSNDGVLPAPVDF

[10] = target: T5, Voltage-gated N-type calcium channel alpha-1B subunit/Amyloid beta A4 precursor protein-binding family A member 1 (Homo sapiens, UniProt Q00975+Q02410); type: protein assay
T5 sequence (Q00975 whole entry): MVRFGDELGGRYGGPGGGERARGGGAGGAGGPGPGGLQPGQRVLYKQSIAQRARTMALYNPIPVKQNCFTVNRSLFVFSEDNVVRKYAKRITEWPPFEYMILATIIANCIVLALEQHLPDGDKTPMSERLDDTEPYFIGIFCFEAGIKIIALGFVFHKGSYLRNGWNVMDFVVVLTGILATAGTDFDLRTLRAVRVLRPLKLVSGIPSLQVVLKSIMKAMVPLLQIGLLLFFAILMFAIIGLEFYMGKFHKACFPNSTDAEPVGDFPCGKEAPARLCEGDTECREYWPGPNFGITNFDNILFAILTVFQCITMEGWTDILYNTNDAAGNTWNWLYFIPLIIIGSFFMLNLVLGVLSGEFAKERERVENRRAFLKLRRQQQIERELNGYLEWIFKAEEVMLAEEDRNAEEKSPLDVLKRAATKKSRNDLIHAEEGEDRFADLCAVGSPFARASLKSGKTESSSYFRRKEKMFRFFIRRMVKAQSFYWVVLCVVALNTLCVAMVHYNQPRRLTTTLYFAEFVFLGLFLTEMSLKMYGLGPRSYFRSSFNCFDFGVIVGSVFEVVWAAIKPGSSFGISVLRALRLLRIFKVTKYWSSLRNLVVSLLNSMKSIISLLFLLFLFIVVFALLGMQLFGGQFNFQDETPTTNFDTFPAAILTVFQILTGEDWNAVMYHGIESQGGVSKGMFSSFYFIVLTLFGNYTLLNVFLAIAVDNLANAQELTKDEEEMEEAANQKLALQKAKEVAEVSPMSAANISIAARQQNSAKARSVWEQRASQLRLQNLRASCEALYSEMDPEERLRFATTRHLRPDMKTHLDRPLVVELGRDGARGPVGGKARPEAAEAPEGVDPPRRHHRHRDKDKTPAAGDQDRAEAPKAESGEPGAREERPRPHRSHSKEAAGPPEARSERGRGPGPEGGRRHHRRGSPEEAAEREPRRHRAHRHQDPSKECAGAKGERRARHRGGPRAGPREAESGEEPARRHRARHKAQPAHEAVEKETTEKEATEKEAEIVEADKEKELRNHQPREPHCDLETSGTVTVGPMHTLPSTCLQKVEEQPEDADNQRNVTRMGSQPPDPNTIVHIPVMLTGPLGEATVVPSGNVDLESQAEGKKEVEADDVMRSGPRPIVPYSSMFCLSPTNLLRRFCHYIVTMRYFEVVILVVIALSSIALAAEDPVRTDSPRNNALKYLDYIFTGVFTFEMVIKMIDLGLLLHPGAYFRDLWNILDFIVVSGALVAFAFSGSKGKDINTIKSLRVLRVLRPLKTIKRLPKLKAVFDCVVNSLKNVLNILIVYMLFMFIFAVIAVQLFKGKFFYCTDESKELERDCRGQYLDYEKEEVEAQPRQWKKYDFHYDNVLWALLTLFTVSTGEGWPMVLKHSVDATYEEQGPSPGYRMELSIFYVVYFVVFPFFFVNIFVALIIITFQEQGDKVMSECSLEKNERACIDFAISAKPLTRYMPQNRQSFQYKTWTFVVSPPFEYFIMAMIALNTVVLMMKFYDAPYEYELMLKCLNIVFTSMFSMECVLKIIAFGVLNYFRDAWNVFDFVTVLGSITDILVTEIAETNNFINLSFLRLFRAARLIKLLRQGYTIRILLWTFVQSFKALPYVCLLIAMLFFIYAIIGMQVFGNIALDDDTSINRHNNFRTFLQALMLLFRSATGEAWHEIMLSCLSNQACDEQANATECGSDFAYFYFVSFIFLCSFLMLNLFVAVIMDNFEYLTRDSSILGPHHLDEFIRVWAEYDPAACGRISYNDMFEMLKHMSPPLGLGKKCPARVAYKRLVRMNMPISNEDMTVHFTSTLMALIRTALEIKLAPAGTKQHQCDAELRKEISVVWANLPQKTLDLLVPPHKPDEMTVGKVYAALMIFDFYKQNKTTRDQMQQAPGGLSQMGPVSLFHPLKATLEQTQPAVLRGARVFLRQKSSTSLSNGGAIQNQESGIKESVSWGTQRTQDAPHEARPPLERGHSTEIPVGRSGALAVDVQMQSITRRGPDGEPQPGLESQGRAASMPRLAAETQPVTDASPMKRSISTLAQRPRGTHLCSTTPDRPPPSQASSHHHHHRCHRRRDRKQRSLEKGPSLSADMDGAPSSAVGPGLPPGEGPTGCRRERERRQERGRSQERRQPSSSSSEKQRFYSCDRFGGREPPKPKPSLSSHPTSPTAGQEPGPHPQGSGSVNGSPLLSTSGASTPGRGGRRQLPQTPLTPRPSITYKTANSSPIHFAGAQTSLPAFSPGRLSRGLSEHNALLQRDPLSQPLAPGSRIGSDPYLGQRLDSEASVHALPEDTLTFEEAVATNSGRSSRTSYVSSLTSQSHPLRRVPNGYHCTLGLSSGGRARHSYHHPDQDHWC
T5 sequence (Q02410 whole entry): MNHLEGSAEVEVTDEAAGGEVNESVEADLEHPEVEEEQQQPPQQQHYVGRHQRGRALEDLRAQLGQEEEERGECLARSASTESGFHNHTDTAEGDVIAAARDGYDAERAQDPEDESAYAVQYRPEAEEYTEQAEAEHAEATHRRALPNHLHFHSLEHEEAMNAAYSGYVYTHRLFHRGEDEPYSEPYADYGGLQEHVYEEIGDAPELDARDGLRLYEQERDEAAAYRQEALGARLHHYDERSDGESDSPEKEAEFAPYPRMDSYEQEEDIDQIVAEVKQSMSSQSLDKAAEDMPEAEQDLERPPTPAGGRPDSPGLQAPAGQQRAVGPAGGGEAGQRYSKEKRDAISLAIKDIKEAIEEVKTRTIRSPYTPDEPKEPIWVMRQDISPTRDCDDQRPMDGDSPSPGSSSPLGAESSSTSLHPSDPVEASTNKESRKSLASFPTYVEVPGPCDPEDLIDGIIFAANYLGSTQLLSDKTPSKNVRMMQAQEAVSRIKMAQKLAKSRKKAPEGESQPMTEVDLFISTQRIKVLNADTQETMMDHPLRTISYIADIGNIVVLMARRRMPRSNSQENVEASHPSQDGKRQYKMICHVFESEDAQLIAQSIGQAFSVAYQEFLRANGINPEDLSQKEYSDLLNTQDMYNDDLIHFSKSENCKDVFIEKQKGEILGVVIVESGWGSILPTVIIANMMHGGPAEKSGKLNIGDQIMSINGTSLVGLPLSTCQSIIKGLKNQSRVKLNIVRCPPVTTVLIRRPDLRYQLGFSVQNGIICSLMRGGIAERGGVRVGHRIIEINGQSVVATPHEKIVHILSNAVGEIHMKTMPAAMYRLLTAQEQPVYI

[11] = target: T5, Voltage-gated N-type calcium channel alpha-1B subunit/Amyloid beta A4 precursor protein-binding family A member 1; assay: disruptors of Mint-PDZ/N-type channel peptide interaction – biochemical, HTRF, SAR follow-up (AID 2489); type: functional
[12] = target: T5, Voltage-gated N-type calcium channel alpha-1B subunit/Amyloid beta A4 precursor protein-binding family A member 1; type: protein assay; remark: listed apart in the source
Coagulation factor XII = target: T6, Coagulation factor XII (Homo sapiens, UniProt P00748); type: functional;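 also: activated factor XIIa alpha cleaving a fluorogenic AMC peptide substrate; inhibitor potency from loss of enzyme activity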
T6 sequence (P00748 whole entry): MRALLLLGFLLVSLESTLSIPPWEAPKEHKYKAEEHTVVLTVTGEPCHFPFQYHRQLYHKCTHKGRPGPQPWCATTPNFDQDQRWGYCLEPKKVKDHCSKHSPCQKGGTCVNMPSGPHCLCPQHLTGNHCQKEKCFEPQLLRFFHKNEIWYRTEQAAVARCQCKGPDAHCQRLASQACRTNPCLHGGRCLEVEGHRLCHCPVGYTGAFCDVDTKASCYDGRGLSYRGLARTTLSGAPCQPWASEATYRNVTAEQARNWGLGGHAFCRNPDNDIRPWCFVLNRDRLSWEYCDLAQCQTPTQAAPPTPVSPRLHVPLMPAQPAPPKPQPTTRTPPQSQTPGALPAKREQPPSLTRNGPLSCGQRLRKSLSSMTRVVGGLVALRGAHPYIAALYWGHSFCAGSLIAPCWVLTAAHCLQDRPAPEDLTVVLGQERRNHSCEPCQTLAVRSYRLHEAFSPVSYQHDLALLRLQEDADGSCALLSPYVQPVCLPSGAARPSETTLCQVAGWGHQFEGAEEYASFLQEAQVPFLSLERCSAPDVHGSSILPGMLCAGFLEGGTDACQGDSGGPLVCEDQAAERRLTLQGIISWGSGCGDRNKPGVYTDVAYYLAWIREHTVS

[13] = fluconazole-exposed Candida albicans growth modulators – fluorescence, retest, confirmation (AID 2467); type: functional, cell-based
[14] = NIH-3T3 fibroblast cytotoxicity, dose response, cytotoxicity control, cell-based, fluorescence, Alamar Blue, secondary assay (AID 2327); type: functional;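 also: NIH-3T3 mouse fibroblasts cultured with fluconazole at 8 µg/mL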
Cytochrome P450 3A4 = Cytochrome P450 3A4 (Homo sapiens, UniProt P08684);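 also: CYP3A4 tested as one member of a cytochrome P450 panel screen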
Cytochrome P450 3A4, sequence (P08684 whole entry): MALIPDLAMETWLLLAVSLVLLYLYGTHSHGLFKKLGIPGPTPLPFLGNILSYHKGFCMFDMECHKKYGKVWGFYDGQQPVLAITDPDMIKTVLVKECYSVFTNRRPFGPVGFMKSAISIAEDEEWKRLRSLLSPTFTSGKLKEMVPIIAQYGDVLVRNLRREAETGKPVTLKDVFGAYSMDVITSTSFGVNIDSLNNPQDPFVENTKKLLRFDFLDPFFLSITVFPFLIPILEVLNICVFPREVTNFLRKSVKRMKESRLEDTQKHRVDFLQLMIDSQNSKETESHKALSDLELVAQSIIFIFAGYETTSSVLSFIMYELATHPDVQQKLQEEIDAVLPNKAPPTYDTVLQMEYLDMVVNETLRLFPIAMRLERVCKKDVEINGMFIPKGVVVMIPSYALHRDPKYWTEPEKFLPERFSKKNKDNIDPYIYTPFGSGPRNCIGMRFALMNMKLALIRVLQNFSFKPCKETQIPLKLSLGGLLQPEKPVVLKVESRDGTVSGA

Cytochrome P450 2C9 = Cytochrome P450 2C9 (Homo sapiens, UniProt P11712)
Cytochrome P450 2C9, sequence (P11712 whole entry): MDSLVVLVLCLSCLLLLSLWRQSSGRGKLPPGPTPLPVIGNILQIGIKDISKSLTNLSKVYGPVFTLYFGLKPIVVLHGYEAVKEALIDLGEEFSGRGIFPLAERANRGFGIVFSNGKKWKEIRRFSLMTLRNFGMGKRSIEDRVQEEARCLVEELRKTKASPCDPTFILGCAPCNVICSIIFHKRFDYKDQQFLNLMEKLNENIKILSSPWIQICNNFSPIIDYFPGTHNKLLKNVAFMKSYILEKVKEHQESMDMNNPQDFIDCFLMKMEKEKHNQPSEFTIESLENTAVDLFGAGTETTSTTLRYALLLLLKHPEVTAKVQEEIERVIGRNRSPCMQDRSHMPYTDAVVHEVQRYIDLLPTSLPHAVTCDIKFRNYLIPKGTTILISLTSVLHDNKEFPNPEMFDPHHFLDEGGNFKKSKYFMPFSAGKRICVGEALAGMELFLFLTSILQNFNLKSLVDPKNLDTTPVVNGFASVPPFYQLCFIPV

[15] = Luminescence Cell-Based Dose Confirmation HTS to Identify Activators of 5'UTR Stem-Loop Driven Alpha-Synuclein mRNA Translation in H4 Neuroglioblastoma Cells. [Related pubchem assays: 1829 (Project Summary), 1814 (Primary HTS)]; type: functional
[16] = Luminescence Cell-Based Dose Response HTS to Identify Activators of Luciferase Translation or Activity in H4 […] Cells. [Related pubchem assays: 1829 (Project Summary), 1814 (Primary HTS)]; type: functional
H4 = assay: Luminescence Cell-Based Dose Response HTS to Identify Activators of 5'UTR Stem-Loop Driven Prion Protein mRNA Translation in H4 Neuroglioblastoma Cells. [Related pubchem assays: 1829 (Project Summary), 1814 (Primary HTS)]; type: functional; conditions: Homo sapiens
[17] = target: Nucleotide-binding oligomerization domain-containing protein 2 (Homo sapiens, UniProt Q9HC29); assay: inhibition of NOD2-driven NF-kB reporter – cell-based, luminescence, uHTS, HEK293 (AID 1566); type: functional
HEK293 [18] = assay: inhibition of NOD1-driven NF-kB reporter – cell-based, luminescence, uHTS, primary screen (AID 1578); type: functional; conditions: Homo sapiens
HEK293 [19] = assay: NOD2 signaling inhibitors in MDP-stimulated cells, cell-based, uHTS, luminescence (AID 2001); type: functional; conditions: Homo sapiens
HEK293 [20] = assay: cells; type: functional, cell-based; conditions: Homo sapiens
HEK293 [21] = assay: cells; type: functional, cell-based; conditions: Homo sapiens; remark: listed apart in the source
HEK293 [22] = assay: cells; type: functional, cell-based; conditions: Homo sapiens; remark: listed apart in the source

NC(=O)[C@@H]1CC2(CC(c3cccc(NC(=O)COc4ccc(Cl)cc4)c3)=NO2)CN1C(=O)COc1ccc(Cl)cc1 (stereo not given in full)
CC50 [1]: > 40 µM (active)

CC(CCc1ccc(O)cc1)NC(c1ccccc1)c1ccc(Cl)cc1 (stereo not given)
CC50 [2]: 10.3 µM (active) | IC50 (cells [3]): 11.8 µM (active)

CN(C)CCCN(C(=O)c1ccco1)c1nc(-c2ccc(Cl)cc2)cs1
CC50 (Vero): > 25 µM (active) | EC50 [4]: < 0.1 µM (active) | AC50 [5]: 17.3 µM (active) | EC50 (cells [6]): 0.254 µM (active) | EC50 [7]: > 60 µM (not active) | AC50 [8]: 64.1 µM (active)

O=C1COc2ccc(C(=O)CCl)cc2N1
AC50 [9]: 40.4 µM (active) | EC50 (Protein RecA): 26.3 µM (active) | CC50 [1]: 31.8 µM (active)

Oc1nc(COc2ccc(Br)cc2Cl)nc2ccccc12
CC50 [2]: 23.6 µM (active) | IC50 (cells [3]): 30.7 µM (active)

O=C(CSc1ccc(Cl)cc1)Nc1cccc(-c2nc3ccccc3[nH]2)c1
IC50 [10]: 2.75 µM (active) | IC50 [11]: 26.9 µM (active) | IC50 [12]: 36.7 µM (active)

Cc1cc(C(C#N)c2cccc(Cl)c2)n2ncnc2n1 (stereo not given)
IC50 (Coagulation factor XII): > 50 µM (inactive) | EC50 [13]: 0.598 µM (active) | EC50 [14]: > 160 µM (inactive) | AC50 (Cytochrome P450 3A4): 14.1 µM (inconclusive) | AC50 (Cytochrome P450 2C9): inconclusive

CCc1c(C)nc(N)nc1N1N=C1SCC#N
IC50 (Coagulation factor XII): > 50 µM (inactive)

O=C(NN(c1ccccc1)c1ccccc1)c1ccc([N+](=O)[O-])o1
EC50 [15]: 44.6 µM (active) | CC50 (Vero): 17.4 µM (active) | EC50 [16]: > 120 µM (not active) | EC50 [4]: < 0.1 µM (active) | EC50 (cells [6]): 0.14 µM (active) | EC50 [7]: > 60 µM (not active) | EC50 (H4): > 120 µM (not active)

C/C(=N\NC(=O)c1ccc(NS(=O)(=O)c2cccs2)cc1)c1ccc(C(C)(C)C)cc1
CC50 [2]: 20.6 µM (active) | IC50 (cells [3]): 8.48 µM (active)

COc1cccc(NC(=O)c2cc(-c3cccnc3)nc3c(Cl)cccc23)c1
CC50 [1]: 33.5 µM (active)

Cc1nc(N2CCC(C)CC2)c2c(C)c(C(=O)Nc3cc(F)ccc3C)sc2n1
EC50 [17]: > 20 µM (inactive) | EC50 (HEK293 [18]): > 20 µM (inactive) | IC50 (HEK293 [19]): > 20 µM (inactive) | IC50 (HEK293 [20]): > 20 µM (inactive) | IC50 (HEK293 [21]): > 20 µM (inactive) | IC50 (HEK293 [22]): > 20 µM (inactive)

Cc1cc(Cl)ccc1OC(C)C(=O)NCCCCc1ccccc1 (stereo not given)
CC50 [1]: > 40 µM (active)
